The values below come from paper PMC4639711, “The Helicase Activity of Hyperthermophilic Archaeal MCM is Enhanced at High Temperatures by Lysine Methylation” (Frontiers in Microbiology, 2015).

What all share (format): biochemical
One assay deals with T1, sisMCM (MCM) (Saccharolobus islandicus, UniProt F0NF15, K280M/K281M).
T1 construct: recombinant, pGEX-6P-1 in E. coli BL21(DE3) CodonPlus RIL; GST tag removed with PreScission protease; apparent mass 75 kDa; hexamer
Description: ATPase assay, [γ-32P]ATP, PEI cellulose TLC. Particulars: 1 mM ATP, 100 nM protein, 10 mM magnesium acetate, pH 8.0, 65°C, 30 min; labelled compound; methylation-mimic mutant.

In assay [1] the target is T2, aKMT4 (Saccharolobus islandicus, UniProt F0NBH8).
T2 construct: gene SiRe_1449
T2 sequence (F0NBH8 whole entry): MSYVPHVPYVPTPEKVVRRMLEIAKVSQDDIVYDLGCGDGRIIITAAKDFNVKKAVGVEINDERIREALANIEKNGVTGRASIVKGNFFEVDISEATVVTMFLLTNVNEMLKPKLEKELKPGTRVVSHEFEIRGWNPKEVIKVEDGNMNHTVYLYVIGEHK
Put plainly: 3H-methyl incorporation into sisMCM, SDS-PAGE and autoradiography. Particulars: methyl acceptor sisMCM (2 μM), also automethylation, 50°C, labelled compound.

In assay [2] the target is T3, aKMT4 (Saccharolobus islandicus, UniProt F0NBH8, G38R).
T3 construct: gene SiRe_1449; recombinant, overexpressed in E. coli BL21(DE3) CodonPlus RIL; purified as in Niu et al. 2013; apparent mass 18 kDa
T3 sequence (F0NBH8 whole entry G38R): as the sequence (F0NBH8 whole entry) above, with G38R counted along it
The description is as above. The settings on record: methyl acceptor sisMCM (2 μM), 50°C, labelled compound, methyltransferase-deficient mutant, no activity seen.

Structures are written as SMILES.

T1 sequence (F0NF15 entry or part of it K280M/K281M): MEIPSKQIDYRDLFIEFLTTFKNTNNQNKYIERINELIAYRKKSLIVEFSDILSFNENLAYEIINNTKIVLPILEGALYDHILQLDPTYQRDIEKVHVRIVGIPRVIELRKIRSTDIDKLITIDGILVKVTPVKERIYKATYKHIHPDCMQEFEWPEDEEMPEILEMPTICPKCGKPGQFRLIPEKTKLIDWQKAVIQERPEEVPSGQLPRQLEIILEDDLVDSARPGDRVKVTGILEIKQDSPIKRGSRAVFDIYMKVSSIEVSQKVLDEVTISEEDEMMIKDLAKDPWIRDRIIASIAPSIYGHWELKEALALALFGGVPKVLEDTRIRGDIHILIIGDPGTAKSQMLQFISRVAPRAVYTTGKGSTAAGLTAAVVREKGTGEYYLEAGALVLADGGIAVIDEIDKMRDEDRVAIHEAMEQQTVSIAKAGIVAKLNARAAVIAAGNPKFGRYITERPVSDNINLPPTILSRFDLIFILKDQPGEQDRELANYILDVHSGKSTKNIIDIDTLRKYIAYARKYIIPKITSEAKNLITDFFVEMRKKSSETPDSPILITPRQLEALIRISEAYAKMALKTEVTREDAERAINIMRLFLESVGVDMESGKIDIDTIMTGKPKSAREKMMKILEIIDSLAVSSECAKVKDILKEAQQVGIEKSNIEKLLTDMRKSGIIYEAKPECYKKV

Consider `Nc1ncnc2c1ncn2[C@@H]1O[C@H](COP(=O)(O)OP(=O)(O)OP(=O)(O)O)[C@@H](O)[C@H]1O` [ATP], for which, on sisMCM (MCM), the “ATPase assay, [γ-32P]ATP, PEI cellulose TLC” value is listed as “As for ATPase, K280M/K281M showed moderately decreased activity as wild type”. Take `C[S+](CC[C@H](N)C(=O)O)C[C@H]1O[C@@H](n2cnc3c(N)ncnc32)[C@H](O)[C@@H]1O` (stereo partly drawn) [AdoMet]: the “3H-methyl incorporation into sisMCM, SDS-PAGE and autoradiography” value at aKMT4 [1] was “We noticed potent ^3H-methyl incorporation into sisMCM protein as well as aKMT4 itself”; on aKMT4 [2], “no tritium incorporation was observed in the presence of a methyltransferase-deficient mutant aKMT4-G38R”.
